Laboratory results: patent US9101638B2, “Boronic acid derivatives and therapeutic uses thereof” (Rempex Pharmaceuticals, Inc., priority 2013, dated 2015)
Like-named read-outs stand apart in the source and are kept apart here.

Legend:
Urokinase = target: T1, Urokinase (Homo sapiens, UniProt P00749); assay: Serine protease inhibition: urokinase; assay type: biochemical, mammalian; conditions: Table 8A, class symbols; read-out: IC50 Urokinase
T1 construct: purchased Calbiochem 672112
Summary of the method: (§1)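 Inhibitors at several concentrations are preincubated with each protease for 10 min at 37° C before substrate is added, and reaction rates over 30 min are compared with an untreated control.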

Chymotrypsin = target: T2, Chymotrypsin (Bos taurus, UniProt P00766); assay: Serine protease inhibition: chymotrypsin; assay type: biochemical, mammalian; conditions: Table 8A, class symbols; read-out: IC50 Chymotrypsin
T2 construct: purchased Calbiochem 230832
Summary of the method: as §1

SHV-12 = SHV-12 (Klebsiella pneumoniae, UniProt P0AD64, E235K/G234S/L31Q); assay: Inhibition of nitrocefin cleavage by purified SHV-12; assay type: biochemical; conditions: nitrocefin reporter substrate, purified enzyme; read-out: Ki (SHV-12, NCF)
SHV-12, sequence (P0AD64 22-286 L31Q/G234S/E235K): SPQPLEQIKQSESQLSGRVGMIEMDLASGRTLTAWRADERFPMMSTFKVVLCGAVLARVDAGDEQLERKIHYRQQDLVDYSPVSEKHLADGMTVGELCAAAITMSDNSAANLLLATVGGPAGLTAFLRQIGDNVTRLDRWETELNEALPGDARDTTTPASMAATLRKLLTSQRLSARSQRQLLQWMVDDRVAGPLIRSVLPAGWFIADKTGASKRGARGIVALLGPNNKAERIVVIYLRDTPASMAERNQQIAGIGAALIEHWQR
Summary of the method: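 Readout: nitrocefin hydrolysis, A490 recorded every 10 sec over 10 min. Enzyme and inhibitor (varied concentrations) preincubated 10 min, RT, in reaction buffer before substrate addition.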

Trypsin = target: T3, Trypsin (Bos taurus, UniProt P00760); assay: Serine protease inhibition: trypsin; assay type: biochemical, mammalian; conditions: Table 8A, class symbols; read-out: IC50 Trypsin
T3 construct: purchased Calbiochem 6502
T3 sequence (P00760 24-246): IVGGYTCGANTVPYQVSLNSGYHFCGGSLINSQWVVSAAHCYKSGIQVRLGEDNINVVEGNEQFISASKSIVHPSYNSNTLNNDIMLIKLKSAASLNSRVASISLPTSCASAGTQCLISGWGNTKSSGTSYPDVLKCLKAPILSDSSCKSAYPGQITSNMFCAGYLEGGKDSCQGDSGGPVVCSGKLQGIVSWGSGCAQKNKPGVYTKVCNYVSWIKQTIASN
Method: (§2) The effect of selected BLIs on the enzymatic activity of some common mammalian serine proteases was evaluated.
(§3) 50 μl of the diluted enzyme was mixed with 50 μl of inhibitor at various concentrations and 50 μl of corresponding buffer (Table 7). Reaction mixtures were incubated for 10 min at 37° C. Subsequently, 50 μl of corresponding substrate (Table 7) was added and absorbance or fluorescence was monitored for 30 min on SpectraMax M2 plate reader (Molecular Devices). 4-(2-Aminoethyl)benzenesulfonyl fluoride hydrochloride (AEBSF) and leupeptin were used as positive controls. Rates of reaction were calculated and presented relative to “no treatment” control.

ec308 (SHV-5) [1] = assay: Potentiation of aztreonam, strain ec308; assay type: cell-based; conditions: minimum BLI concentration inhibiting growth with 4 μg/mL aztreonam
CathepsinA = target: T4, CathepsinA (Homo sapiens, UniProt P10619); assay: Serine protease inhibition: cathepsin A; assay type: biochemical, mammalian; conditions: Table 8B; read-out: IC50 CathepsinA
T4 construct: purchased R&D Systems 1049-SE
T4 sequence (P10619 29-480): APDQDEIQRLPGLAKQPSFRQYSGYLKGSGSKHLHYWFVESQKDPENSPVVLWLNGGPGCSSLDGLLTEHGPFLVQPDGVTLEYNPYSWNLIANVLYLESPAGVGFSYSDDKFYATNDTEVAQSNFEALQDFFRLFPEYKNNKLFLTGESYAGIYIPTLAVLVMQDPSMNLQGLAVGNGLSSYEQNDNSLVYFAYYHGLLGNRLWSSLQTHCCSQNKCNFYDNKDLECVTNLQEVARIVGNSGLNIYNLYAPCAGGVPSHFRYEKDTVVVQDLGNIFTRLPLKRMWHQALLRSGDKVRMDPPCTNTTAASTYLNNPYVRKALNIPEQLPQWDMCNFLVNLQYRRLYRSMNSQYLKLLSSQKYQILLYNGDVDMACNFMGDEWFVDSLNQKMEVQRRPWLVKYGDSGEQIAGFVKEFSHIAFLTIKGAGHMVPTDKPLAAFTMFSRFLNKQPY
Summary of the method: as §1

Plasmin = target: T5, Plasmin (Homo sapiens, UniProt P00747); assay: Serine protease inhibition: plasmin; assay type: biochemical, mammalian; conditions: Table 8A, class symbols; read-out: IC50 Plasmin
T5 construct: Plasmin; MPBio; 19419890; purchased MPBio 19419890
T5 sequence (P00747 581-810 limits assumed, species assumed): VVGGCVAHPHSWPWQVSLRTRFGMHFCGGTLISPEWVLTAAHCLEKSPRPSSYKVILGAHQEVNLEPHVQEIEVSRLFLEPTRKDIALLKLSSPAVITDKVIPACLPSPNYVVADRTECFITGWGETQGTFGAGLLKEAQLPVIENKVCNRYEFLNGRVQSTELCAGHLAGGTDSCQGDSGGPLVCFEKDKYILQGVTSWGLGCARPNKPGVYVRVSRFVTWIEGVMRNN
T5 sequence (P00747 97-580 partner limits assumed, species assumed): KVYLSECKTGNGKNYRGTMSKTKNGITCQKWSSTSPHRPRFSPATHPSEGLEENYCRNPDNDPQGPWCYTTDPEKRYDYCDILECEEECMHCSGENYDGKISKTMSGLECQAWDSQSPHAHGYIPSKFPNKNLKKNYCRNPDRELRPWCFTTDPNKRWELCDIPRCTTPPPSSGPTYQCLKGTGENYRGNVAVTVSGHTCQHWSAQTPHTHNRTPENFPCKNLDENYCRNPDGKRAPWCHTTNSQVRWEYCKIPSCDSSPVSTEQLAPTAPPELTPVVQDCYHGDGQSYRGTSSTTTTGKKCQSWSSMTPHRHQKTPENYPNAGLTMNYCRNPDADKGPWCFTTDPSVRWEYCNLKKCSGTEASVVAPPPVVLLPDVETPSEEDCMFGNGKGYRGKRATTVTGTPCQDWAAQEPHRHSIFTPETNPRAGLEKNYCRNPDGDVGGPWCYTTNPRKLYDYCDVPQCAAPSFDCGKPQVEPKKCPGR
Method: as §2, §3

PAM1032/KPC-2 = assay: Biapenem potentiation in PAM1032/KPC-2 (MexAB-OprM overexpressed); assay type: cell-based, Pseudomonas aeruginosa
Method: (§4) Efflux of BLIs from Pseudomonas aeruginosa by the MexAB-OprM efflux pump was also evaluated. […] Due to expression of KPC-2 both strains became resistant to biapenem. […] Potency of BLIs to potentiate biapenem in these strains was determined. […] The ratio of MPC64 values for each BLI in PAM1032/KPC-2 (efflux proficient) and PAM1154/KPC-2 (efflux deficient) was determined to generate the Efflux Index (EI).

[2] = target: T6, Dipeptidyl peptidase 7 (DPP7) (Homo sapiens, UniProt Q9UHL4); assay: Serine protease inhibition: DPP7; assay type: biochemical, mammalian; conditions: Table 8B; read-out: IC50 DPP7
T6 construct: purchased R&D Systems 3438-SE
Method: as §2, §3

EC1010 (CMY-6) = assay type: cell-based
KP1005 (CTX-M-14) = assay: Potentiation of aztreonam, strain KP1005; assay type: cell-based
KP1004 (K-2) = assay: Potentiation of aztreonam, strain KP1004; assay type: cell-based; conditions: minimum BLI concentration inhibiting growth with 4 μg/mL aztreonam
[3] = target: T7, Dipeptidyl peptidase 9 (DPP9) (Homo sapiens, UniProt Q86TI2); assay: Serine protease inhibition: DPP9; assay type: biochemical, mammalian; conditions: Table 8B; read-out: IC50 DPP9
T7 construct: purchased BPS Bioscience 80090
T7 sequence (Q86TI2 whole entry): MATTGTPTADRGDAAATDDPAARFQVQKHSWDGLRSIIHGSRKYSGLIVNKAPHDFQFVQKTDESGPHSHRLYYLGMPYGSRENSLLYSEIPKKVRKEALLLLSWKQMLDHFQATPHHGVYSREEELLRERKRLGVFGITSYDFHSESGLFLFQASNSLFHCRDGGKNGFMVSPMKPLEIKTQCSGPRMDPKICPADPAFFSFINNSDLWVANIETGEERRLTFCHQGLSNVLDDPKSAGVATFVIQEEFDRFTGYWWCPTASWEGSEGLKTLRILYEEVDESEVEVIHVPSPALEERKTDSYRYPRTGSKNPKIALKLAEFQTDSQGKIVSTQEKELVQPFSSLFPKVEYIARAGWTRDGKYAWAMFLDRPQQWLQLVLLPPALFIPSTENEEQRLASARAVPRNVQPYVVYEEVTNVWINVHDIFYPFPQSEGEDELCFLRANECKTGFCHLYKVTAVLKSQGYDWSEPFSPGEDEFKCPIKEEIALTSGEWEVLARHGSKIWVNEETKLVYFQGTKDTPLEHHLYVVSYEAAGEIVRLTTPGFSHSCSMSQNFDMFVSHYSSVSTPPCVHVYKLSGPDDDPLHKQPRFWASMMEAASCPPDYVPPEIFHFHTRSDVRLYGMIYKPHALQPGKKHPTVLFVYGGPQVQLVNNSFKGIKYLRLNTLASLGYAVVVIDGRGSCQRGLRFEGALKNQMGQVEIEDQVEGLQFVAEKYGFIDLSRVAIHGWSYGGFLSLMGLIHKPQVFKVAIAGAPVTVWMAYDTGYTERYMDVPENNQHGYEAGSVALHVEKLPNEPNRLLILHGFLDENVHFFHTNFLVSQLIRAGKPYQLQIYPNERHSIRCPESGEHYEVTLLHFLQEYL
Summary of the method: as §1

ECL1002 = assay: Potentiation of aztreonam, strain ECL1002; assay type: cell-based; conditions: minimum BLI concentration inhibiting growth with 4 μg/mL aztreonam
KP1009 (CTX-M-15) = assay: Potentiation of tigemonam, strain KP1009; conditions: minimum BLI concentration inhibiting growth with 4 μg/mL tigemonam
PAM1154/KPC-2 = assay: Biapenem potentiation in PAM1154/KPC-2 (MexAB-OprM lacking); assay type: cell-based, Pseudomonas aeruginosa
Method: as §4

Chymase = target: T8, Chymase (Homo sapiens, UniProt P23946); assay: Serine protease inhibition: chymase; assay type: biochemical, mammalian; conditions: Table 8A, class symbols; read-out: IC50 Chymase
T8 construct: purchased Enzo Lifescience BML-SE281
T8 sequence (P23946 22-247): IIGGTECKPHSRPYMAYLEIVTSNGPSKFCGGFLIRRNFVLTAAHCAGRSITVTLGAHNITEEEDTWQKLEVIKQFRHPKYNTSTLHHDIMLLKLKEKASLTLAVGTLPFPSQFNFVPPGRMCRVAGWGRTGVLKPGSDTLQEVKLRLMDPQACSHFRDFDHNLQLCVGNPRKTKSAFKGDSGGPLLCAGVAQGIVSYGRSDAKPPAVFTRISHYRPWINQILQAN
Summary of the method: as §1

ec308 (SHV-5) [4] = assay: Potentiation of tigemonam, strain ec308; assay type: cell-based; conditions: minimum BLI concentration inhibiting growth with 4 μg/mL tigemonam
ec302 (TEM-10) = assay: Potentiation of aztreonam, strain ec302; assay type: cell-based
[5] = BLI potency to decrease biapenem MIC 64-fold, 32 to 0.5 μg/ml, efflux proficient strain

Row | Compound | IC50 (Urokinase) [µM] | IC50 (Chymotrypsin) [µM] | Ki (SHV-12) [µM] | IC50 (Trypsin) [µM] | AZT MPC4 SHV-5 ec308 (ec308 (SHV-5) [1]) | IC50 (CathepsinA) [µM] | IC50 (Plasmin) [µM] | PAM1032/KPC-2 Biapenem MPC64 (PAM1032/KPC-2; [5]) | IC50 [2] [µM] | TIG MPC4 CMY-6 EC1010 (EC1010 (CMY-6)) | AZT MPC4 CTX-M-14 KP1005 (KP1005 (CTX-M-14)) | AZT MPC4 K-2 KP1004 (KP1004 (K-2)) | IC50 [3] [µM] | AZT MPC4 ECL1002 (ECL1002) | TIG MPC4 CTX-M-15 KP1009 (KP1009 (CTX-M-15)) | PAM1154/KPC-2 Biapenem MPC64 (PAM1154/KPC-2) | IC50 (Chymase) [µM] | TIG MPC4 SHV-5 ec308 (ec308 (SHV-5) [4]) | AZT MPC4 TEM-10 ec302 (ec302 (TEM-10)) | PAM1032/KPC-2 Biapenem MPC64 (PAM1032/KPC-2)
1 | O=C(Cc1cccs1)N[C@H]1Cc2cccc(C(=O)O)c2OB1O [CPD A, reference compound] | > 800 | < 300 | < 0.001 | > 800 | X (X = MIC of less than 1 μg/mL) | < 15 | > 800 | Z (Z Greater than 40) | > 500 | X (key: X = MIC of less than 1 μg/mL; Y = MIC of 1 μg/mL to 10 μg/mL; Z = MIC of greater than 10 μg/mL) | Y (key: X = MIC of less than 1 μg/mL; Y = MIC of 1 μg/mL to 10 μg/mL; Z = MIC of greater than 10 μg/mL) | Y (Y = MIC of 1 μg/mL to 10 μg/mL) | 15 to 500 | Y (Y = MIC of 1 μg/mL to 10 μg/mL) | Y (Y = MIC of 1 μg/mL to 10 μg/mL) | X (key: X = Less than 10; Y = 10 to 40; Z Greater than 40) | < 300 | Y (Y = MIC of 1 μg/mL to 10 μg/mL) | Y (key: X = MIC of less than 1 μg/mL; Y = MIC of 1 μg/mL to 10 μg/mL; Z = MIC of greater than 10 μg/mL) | 
2 | O=CN[C@H]1Cc2cccc(C(=O)O)c2OB1O [Compound 4, (R)-3-formamido-2-hydroxy-3,4-dihydro-2H-benzo[e][1,2]oxaborinine-8-carboxylic acid] | > 800 | > 800 | 0.001 to 0.01 | > 800 | Y (Y = MIC of 1 μg/mL to 10 μg/mL) | > 500 | > 800 |  | > 500 | X (key: X = MIC of less than 1 μg/mL; Y = MIC of 1 μg/mL to 10 μg/mL; Z = MIC of greater than 10 μg/mL) | Y (key: X = MIC of less than 1 μg/mL; Y = MIC of 1 μg/mL to 10 μg/mL; Z = MIC of greater than 10 μg/mL) | X (X = MIC of less than 1 μg/mL) | > 500 | Y (Y = MIC of 1 μg/mL to 10 μg/mL) | Y (Y = MIC of 1 μg/mL to 10 μg/mL) | X (key: X = Less than 10; Y = 10 to 40; Z Greater than 40) | > 800 | Y (Y = MIC of 1 μg/mL to 10 μg/mL) | Y (key: X = MIC of less than 1 μg/mL; Y = MIC of 1 μg/mL to 10 μg/mL; Z = MIC of greater than 10 μg/mL) | X (key: X = Less than 10; Y = 10 to 40; Z Greater than 40)
3 | O=C(CSC(F)F)N[C@H]1Cc2cccc(C(=O)O)c2OB1O [Compound 3, (R)-3-(2-(difluoromethylthio)acetamido)-2-hydroxy-3,4-dihydro-2H-benzo[e][1,2]oxaborinine-8-carboxylic acid] | > 800 | > 800 | < 0.001 | > 800 | X (X = MIC of less than 1 μg/mL) | < 15 | > 800 | Z (Z Greater than 40) | > 500 | X (key: X = MIC of less than 1 μg/mL; Y = MIC of 1 μg/mL to 10 μg/mL; Z = MIC of greater than 10 μg/mL) | X (key: X = MIC of less than 1 μg/mL; Y = MIC of 1 μg/mL to 10 μg/mL; Z = MIC of greater than 10 μg/mL) | Y (Y = MIC of 1 μg/mL to 10 μg/mL) | > 500 | Y (Y = MIC of 1 μg/mL to 10 μg/mL) | X (X = MIC of less than 1 μg/mL) | X (key: X = Less than 10; Y = 10 to 40; Z Greater than 40) | 300 to 800 | X (X = MIC of less than 1 μg/mL) | Y (key: X = MIC of less than 1 μg/mL; Y = MIC of 1 μg/mL to 10 μg/mL; Z = MIC of greater than 10 μg/mL) | 
